Measured values as given in patent publication US20250281424A1 (New York Blood Center, Inc, priority 2020, published 2025).

Molecular target: T1, human PF4 (Homo sapiens, UniProt P02776)
T1 construct: PF4 is a 70 amino acid, lysine-rich 7.8 kDa platelet-specific protein; made in house; host or cells: Escherichia coli BL21DE3 pLysS (pT7-7) and/or Drosophila S2 cells
T1 sequence (P02776 32-101): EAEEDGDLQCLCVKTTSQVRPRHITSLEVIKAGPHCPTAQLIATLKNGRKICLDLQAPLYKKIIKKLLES
Assay: Inhibition of PF4 tetramer formation (BS3 cross-linking, SDS-PAGE)
Format: biochemical
Settings: for inhibition at 5 µM: 5 μM inhibitor; for inhibition at 5 µM / inhibition at 10 µM / inhibition at 1 µM / inhibition at 3 µM: read-out: % inhibition of PF4 tetramer formation at single concentration of inhibitor; for inhibition at 10 µM: 10 μM inhibitor (column A); for IC50: read-out: IC50 of PF4 tetramer formation inhibition; for inhibition at 1 µM: 1 μM inhibitor; for inhibition at 3 µM: 3 μM inhibitor (column A)
How it was run: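 Monomer, dimer, trimer and tetramer fractions were quantified by densitometry after reducing 12% SDS-PAGE of BS3-cross-linked (0.2 mM, 30 min, room temperature) PF4. Before cross-linking, 10 μg/ml E. coli-expressed human WT PF4 in PBS was exposed to compound for 15 min at 37° C or 60 min at room temperature; controls lacked compound.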

Question: `O=C(NCC1CCCO1)C1C(=O)c2ccc(S(=O)(=O)c3ccc4c(c3)C(=O)C(C(=O)NCC3CCCO3)C4=O)cc2C1=O` (centres unmarked) [Example 89, 5-[(1,3-dioxo-2-{[(oxolan-2-yl)methyl]carbamoyl}-2,3-dihydro-1H-inden-5-yl)sulfonyl]-1,3-dioxo-N-[(oxolan-2-yl)methyl]-2,3-dihydro-1H-indene-2-carboxamide] was tested. Which inhibition at 5 µM did it give?
Answer: 38%

Question: And the inhibition at 10 µM?
Answer: 66%

Question: How did the inhibition at 5 µM turn out when `CC(=O)c1cccc(NC(=O)C2C(=O)c3ccc(C(=O)c4ccc5c(c4)C(=O)C(C(=O)Nc4cccc(C(C)=O)c4)C5=O)cc3C2=O)c1` (centres unmarked) [Example 103, N-(3-acetylphenyl)-5-{2-[(3-acetylphenyl)carbamoyl]-1,3-dioxo-2,3-dihydro-1H-indene-5-carbonyl}-1,3-dioxo-2,3-dihydro-1H-indene-2-carboxamide] was run?
Answer: 66%

Question: What about the inhibition at 10 µM of the same molecule?
Answer: 77%

Question: What about the IC50 of the same molecule?
Answer: 500 nM

Question: For `O=C(NC1CCS(=O)(=O)C1)C1C(=O)c2ccc(S(=O)(=O)c3ccc4c(c3)C(=O)C(C(=O)NC3CCS(=O)(=O)C3)C4=O)cc2C1=O` (centres unmarked) [Example 360, N-(1,1-dioxo-1λ^6-thiolan-3-yl)-5-({2-[(1,1-dioxo-1λ^6-thiolan-3-yl)carbamoyl]-1,3-dioxo-2,3-dihydro-1H-inden-5-yl}sulfonyl)-1,3-dioxo-2,3-dihydro-1H-indene-2-carboxamide], which inhibition at 1 µM is on record?
Answer: 23%

Question: And the inhibition at 3 µM?
Answer: 59%

Question: `CCCCNC(=O)C1C(=O)c2ccc(C(=O)c3ccc4c(c3)C(=O)C(C(=O)NCCCC)C4=O)cc2C1=O` (centres unmarked) [Example 77, N-butyl-5-[2-(butylcarbamoyl)-1,3-dioxo-2,3-dihydro-1H-indene-5-carbonyl]-1,3-dioxo-2,3-dihydro-1H-indene-2-carboxamide] was tested. Which IC50 did it give?
Answer: 2300 nM

Question: Which inhibition at 5 µM does the source give for `CO[C@@H](C(=O)C1C(=O)c2ccc(C(=O)c3ccc4c(c3)C(=O)C(C(=O)[C@H](OC)c3ccccc3)C4=O)cc2C1=O)c1ccccc1` (stereo partly drawn) [Example 119, 2-[(2R)-2-methoxy-2-phenylacetyl]-5-{2-[(2R)-2-methoxy-2-phenylacetyl]-1,3-dioxo-2,3-dihydro-1H-indene-5-carbonyl}-2,3-dihydro-1H-indene-1,3-dione] here?
Answer: 83%

Question: And the inhibition at 10 µM?
Answer: 90%

Question: What about the IC50 of the same molecule?
Answer: 4000 nM

Question: How did the inhibition at 10 µM turn out when `O=C(O)CCNC(=O)C1C(=O)c2ccc(S(=O)(=O)c3ccc4c(c3)C(=O)C(C(=O)NCCC(=O)O)C4=O)cc2C1=O` (centres unmarked) [Example 303, 3-{[5-({2-[(2-carboxyethyl)carbamoyl]-1,3-dioxo-2,3-dihydro-1H-inden-5-yl}sulfonyl)-1,3-dioxo-2,3-dihydro-1H-inden-2-yl]formamido}propanoic acid] was run?
Answer: 60%

Question: Which results are given for `CCOC(=O)CC(=O)C1C(=O)c2ccc(S(=O)(=O)c3ccc4c(c3)C(=O)C(C(=O)CC(=O)OCC)C4=O)cc2C1=O` (centres unmarked) [Example 403, ethyl 3-(5-{[2-(3-ethoxy-3-oxopropanoyl)-1,3-dioxo-2,3-dihydro-1H-inden-5-yl]sulfonyl}-1,3-dioxo-2,3-dihydro-1H-inden-2-yl)-3-oxopropanoate]?
Answer: inhibition at 1 µM: 22%; inhibition at 3 µM: 23%

Question: What does the source list for `C[C@H](NC(=O)OC(C)(C)C)C(=O)C1C(=O)c2ccc(S(=O)(=O)c3ccc4c(c3)C(=O)C(C(=O)[C@H](C)NC(=O)OC(C)(C)C)C4=O)cc2C1=O` (stereo partly drawn) [Example 180, tert-butyl N-[(2S)-1-[5-({2-[(2S)-2-{[(tert-butoxy)carbonyl]amino}propanoyl]-1,3-dioxo-2,3-dihydro-1H-inden-5-yl}sulfonyl)-1,3-dioxo-2,3-dihydro-1H-inden-2-yl]-1-oxopropan-2-yl]carbamate]?
Answer: inhibition at 5 µM: 73%; inhibition at 10 µM: 90%; IC50: ~6000 nM

Question: For `O=C(Cc1cccc(F)c1F)C1C(=O)c2ccc(Oc3ccc4c(c3)C(=O)C(C(=O)Cc3cccc(F)c3F)C4=O)cc2C1=O` (centres unmarked) [Example 260, 2-[2-(2,3-difluorophenyl)acetyl]-5-({2-[2-(2,3-difluorophenyl)acetyl]-1,3-dioxo-2,3-dihydro-1H-inden-5-yl}oxy)-2,3-dihydro-1H-indene-1,3-dione], which inhibition at 1 µM is on record?
Answer: 11%

Question: What about the inhibition at 3 µM of the same molecule?
Answer: 46%

Question: What does the source list for `O=C1c2ccc(S(=O)(=O)c3ccc4c(c3)C(=O)C(C(=O)C3CCCCC3)C4=O)cc2C(=O)C1C(=O)C1CCCCC1` (centres unmarked) [Example 288, 2-cyclohexanecarbonyl-5-[(2-cyclohexanecarbonyl-1,3-dioxo-2,3-dihydro-1H-inden-5-yl)sulfonyl]-2,3-dihydro-1H-indene-1,3-dione]?
Answer: inhibition at 1 µM: 10%; inhibition at 3 µM: 15%; IC50: 3000 nM

Question: How did the inhibition at 5 µM turn out when `COc1ccccc1NC(=O)C1C(=O)c2ccc(S(=O)(=O)c3ccc4c(c3)C(=O)C(C(=O)Nc3ccccc3OC)C4=O)cc2C1=O` (centres unmarked) [Example 69, 5,5′-sulfonylbis(n-(2-methoxyphenyl)-1,3-dioxo-2,3-dihydro-1h-indene-2-carboxamide)] was run?
Answer: 60%

Question: What about the inhibition at 10 µM of the same molecule?
Answer: 85%

Question: And the IC50?
Answer: 1050 nM

Question: Which results are given for `CS(=O)(=O)N1CCC(NC(=O)C2C(=O)c3ccc(S(=O)(=O)c4ccc5c(c4)C(=O)C(C(=O)NC4CCN(S(C)(=O)=O)CC4)C5=O)cc3C2=O)CC1` (centres unmarked) [Example 364, N-(1-methanesulfonylpiperidin-4-yl)-5-({2-[(1-methanesulfonylpiperidin-4-yl)carbamoyl]-1,3-dioxo-2,3-dihydro-1H-inden-5-yl}sulfonyl)-1,3-dioxo-2,3-dihydro-1H-indene-2-carboxamide]?
Answer: inhibition at 1 µM: 13%; inhibition at 3 µM: 74%; IC50: 1350 nM

Question: With `O=C(c1ccc2c(c1)C(=O)C(C(=O)Nc1cc(Cl)nc(Cl)c1)C2=O)c1ccc2c(c1)C(=O)C(C(=O)Nc1cc(Cl)nc(Cl)c1)C2=O` (centres unmarked) [Example 17, 5,5′-carbonylbis(1,3-dioxo-indan-2-carboxylic acid (2,6-dichloro-pyridin-4-yl)-amide)] as the molecule, how does the IC50 read?
Answer: 1080 nM

Question: Which results are given for `O=C(c1ccc2c(c1)C(=O)C(C(=O)C1CCN(C(=O)OCc3ccccc3)C1)C2=O)c1ccc2c(c1)C(=O)C(C(=O)C1CCN(C(=O)OCc3ccccc3)C1)C2=O` (centres unmarked) [Example 159, benzyl 3-[5-(2-{1-[(benzyloxy)carbonyl]pyrrolidine-3-carbonyl}-1,3-dioxo-2,3-dihydro-1H-indene-5-carbonyl)-1,3-dioxo-2,3-dihydro-1H-indene-2-carbonyl]pyrrolidine-1-carboxylate]?
Answer: inhibition at 5 µM: 85%; inhibition at 10 µM: 90%; IC50: 3800 nM

Question: `O=C(c1ccc2c(c1)C(=O)C(C(=O)C1CCCCC1)C2=O)c1ccc2c(c1)C(=O)C(C(=O)C1CCCCC1)C2=O` (centres unmarked) [Example 287, 2-cyclohexanecarbonyl-5-(2-cyclohexanecarbonyl-1,3-dioxo-2,3-dihydro-1H-indene-5-carbonyl)-2,3-dihydro-1H-indene-1,3-dione] was tested. Which inhibition at 1 µM did it give?
Answer: 5%

Question: What about the inhibition at 3 µM of the same molecule?
Answer: 31%

Question: And the IC50?
Answer: 3000 nM

Question: Which inhibition at 5 µM does the source give for `O=C(CN1CCCC1=O)C1C(=O)c2ccc(S(=O)(=O)c3ccc4c(c3)C(=O)C(C(=O)CN3CCCC3=O)C4=O)cc2C1=O` (centres unmarked) [Example 184, 5-({1,3-dioxo-2-[2-(2-oxopyrrolidin-1-yl)acetyl]-2,3-dihydro-1H-inden-5-yl}sulfonyl)-2-[2-(2-oxopyrrolidin-1-yl)acetyl]-2,3-dihydro-1H-indene-1,3-dione] here?
Answer: 87%

Question: And the inhibition at 10 µM?
Answer: 95%

Question: What about the IC50 of the same molecule?
Answer: 2000 nM

Question: What does the source list for `COCCOCCN(CC(=O)C1C(=O)c2ccc(Oc3ccc4c(c3)C(=O)C(C(=O)CN(CCOCCOC)C(=O)OC(C)(C)C)C4=O)cc2C1=O)C(=O)OC(C)(C)C` (centres unmarked) [Example 390, tert-butyl N-{2-[5-({2-[2-(11,11-dimethyl-9-oxo-2,5,10-trioxa-8-azadodecan-8-yl)acetyl]-1,3-dioxo-2,3-dihydro-1H-inden-5-yl}oxy)-1,3-dioxo-2,3-dihydro-1H-inden-2-yl]-2-oxoethyl}-N-[2-(2-methoxyethoxy)ethyl]carbamate]?
Answer: inhibition at 1 µM: 27%; inhibition at 3 µM: 31%

Question: How did the IC50 turn out when `CC(C)CCCC(=O)C1C(=O)c2ccc(C(c3ccc4c(c3)C(=O)C(C(=O)CCCC(C)C)C4=O)(C(F)(F)F)C(F)(F)F)cc2C1=O` (centres unmarked) [Example 194, 5-{1,1,1,3,3,3-hexafluoro-2-[2-(5-methylhexanoyl)-1,3-dioxo-2,3-dihydro-1H-inden-5-yl]propan-2-yl}-2-(5-methylhexanoyl)-2,3-dihydro-1H-indene-1,3-dione] was run?
Answer: ~1500 nM

Question: For `C[C@H](NC(=O)C1C(=O)c2ccc(C(=O)c3ccc4c(c3)C(=O)C(C(=O)N[C@@H](C)C(=O)O)C4=O)cc2C1=O)C(=O)O` (stereo partly drawn) [Example 316, (2S)-2-{[5-(2-{[(1S)-1-carboxyethyl]carbamoyl}-1,3-dioxo-2,3-dihydro-1H-indene-5-carbonyl)-1,3-dioxo-2,3-dihydro-1H-inden-2-yl]formamido}propanoic acid], which inhibition at 1 µM is on record?
Answer: 25%

Question: And the inhibition at 3 µM?
Answer: 50%

Question: With `COC(=O)CCC(=O)C1C(=O)c2ccc(C(=O)c3ccc4c(c3)C(=O)C(C(=O)CCC(=O)OC)C4=O)cc2C1=O` (centres unmarked) [Example 230, methyl 4-{5-[2-(4-methoxy-4-oxobutanoyl)-1,3-dioxo-2,3-dihydro-1H-indene-5-carbonyl]-1,3-dioxo-2,3-dihydro-1H-inden-2-yl}-4-oxobutanoate] as the molecule, how does the inhibition at 1 µM read?
Answer: 1%

Question: And the inhibition at 3 µM?
Answer: 24%

Question: With `CC(C)(C)OCC(=O)C1C(=O)c2ccc(C(=O)c3ccc4c(c3)C(=O)C(C(=O)COC(C)(C)C)C4=O)cc2C1=O` (centres unmarked) [Example 235, 2-[2-(tert-butoxy)acetyl]-5-{2-[2-(tert-butoxy)acetyl]-1,3-dioxo-2,3-dihydro-1H-indene-5-carbonyl}-2,3-dihydro-1H-indene-1,3-dione] as the molecule, how does the inhibition at 1 µM read?
Answer: 11%

Question: And the inhibition at 3 µM?
Answer: 29%
